{"source": "patent US20160193240A1", "about": "“Ulmoside-A: Useful For Prevention Or Cure Of Metabolic Diseases” (COUNCIL OF SCIENTIFIC & INDUSTRIAL RESEARCH, priority 2013, published 2016)", "key": {"AdipoR1": {"biological_target": "T1, AdipoR1 (Mus musculus, UniProt Q91VH1)", "T1 construct": "C2C12 myotubes (that express both AdipoR1 and AdipoR2) were incubated with 20 μl control or ULMA-beads; endogenous in cells; host or cells: C2C12 myotubes (mouse), plasma membrane extract", "T1 sequence (Q91VH1 1-375)": "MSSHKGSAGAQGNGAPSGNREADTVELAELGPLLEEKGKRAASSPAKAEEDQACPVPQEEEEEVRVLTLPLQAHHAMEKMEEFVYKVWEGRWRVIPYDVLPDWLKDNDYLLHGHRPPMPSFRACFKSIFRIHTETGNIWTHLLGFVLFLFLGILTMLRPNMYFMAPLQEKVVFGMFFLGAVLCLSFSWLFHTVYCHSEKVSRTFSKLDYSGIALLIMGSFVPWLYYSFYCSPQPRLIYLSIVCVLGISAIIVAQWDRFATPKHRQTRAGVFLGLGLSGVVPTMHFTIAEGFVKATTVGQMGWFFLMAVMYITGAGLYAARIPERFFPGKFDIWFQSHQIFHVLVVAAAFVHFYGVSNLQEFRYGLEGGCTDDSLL", "assay": "ULMA-AdipoR interaction assay (ULMA beads, C2C12 myotube membrane extracts, western blot)", "assay_type": "binding", "settings": "50 μg membrane extract, 12 hours", "experimental": "(§1) B. ULMA interacts with AdipoRs. 20 μl of ULMA beads or control beads were incubated with 50 μg of plasma membrane extracts (prepared using a membrane protein isolation kit; Biomol; according to manufacturer's instructions) prepared from C2C12 myotubes (that expresses both AdipoR1 and AdipoR2) for 12 h on a rotary wheel set at 10 rpm. The supernatant was removed and an aliquot was stored as flowthrough. The pellet was washed 6 times and then the beads were boiled in Lamelli buffer and resolved by 10% denaturing polyacrylamide gel electrophoresis followed by transfer on nitrocellulose membrane and western blotting with anti AdipoR1 or anti-AdipoR2 antibodies. Data represents one of two independent experiments showing identical pattern.\n(§2) To investigate whether this enhancement of PPAR ligand activity by ULMA indeed happens through AdipoRs, physical interaction between ULMA and AdipoRs were assessed. The ULMA was immobilized on agarose beads.\n(§3) Preparation of ULMA Specific Affinity Matrix:\n(§4) ULMA specific Affinity Matrix and Control Matrix were prepared using following protocol.\n(§5) 1. 45 mg and 22.5 mg of epoxy-activated agarose beads (sigma) were weighed and put separately in two 1.5 ml eppendorf tubes. Tubes were labeled as tube-1 and tube-2. 2. The beads were washed 6×, 1 ml each, with double distilled water (DDW). […] At this stage beads were ready for incubation with protein source. […]"}, "AdipoR2": {"biological_target": "T2, AdipoR2 (Mus musculus, UniProt Q8BQS5)", "T2 construct": "C2C12 myotubes (that express both AdipoR1 and AdipoR2) were incubated with 20 μl control or ULMA-beads; endogenous in cells; host or cells: C2C12 myotubes (mouse), plasma membrane extract", "T2 sequence (Q8BQS5 1-386)": "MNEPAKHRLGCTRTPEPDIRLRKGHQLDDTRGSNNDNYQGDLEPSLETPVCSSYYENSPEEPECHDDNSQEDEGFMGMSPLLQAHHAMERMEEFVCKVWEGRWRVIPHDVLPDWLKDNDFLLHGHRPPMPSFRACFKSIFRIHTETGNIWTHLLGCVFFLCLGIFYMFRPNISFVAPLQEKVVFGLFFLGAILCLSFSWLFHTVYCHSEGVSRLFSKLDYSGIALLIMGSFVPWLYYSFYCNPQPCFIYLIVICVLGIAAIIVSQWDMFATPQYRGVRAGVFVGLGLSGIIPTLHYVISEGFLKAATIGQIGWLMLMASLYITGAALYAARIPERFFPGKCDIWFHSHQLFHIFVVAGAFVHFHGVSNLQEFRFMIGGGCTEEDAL", "assay": "ULMA-AdipoR interaction assay (ULMA beads, C2C12 myotube membrane extracts, western blot)", "assay_type": "binding", "settings": "50 μg membrane extract, 12 hours", "experimental": "as §1, §2, §3, §4, §5"}}, "data": [{"smiles": "O=C1c2c(cc(O)c([C@@H]3O[C@H](CO)[C@@H](O)[C@H](O)[C@H]3O)c2O)O[C@@H](c2ccc(O)c(O)c2)[C@@H]1O", "note": "[ULMA, (2S,3S)-(+)-3′,4′,5,7-tetrahydroxydihydroflavonol-6-C-β-D-glucopyranoside]", "values": [{"measurement": "AdipoR1 detection on ULMA beads vs control beads", "setting": "AdipoR1", "value": "detected on ULMA beads"}, {"measurement": "AdipoR2 detection on ULMA beads vs control beads", "setting": "AdipoR2", "value": "detected on ULMA beads"}]}]}
